Consider 12 compounds from patent US11339130B1 (Blade Therapeutics, Inc., priority 2016, dated 2022).

The target in assay [1] is T1, Human Calpain 2/NS1 (Homo sapiens, UniProt P17655).
T1 sequence (P17655 1-700): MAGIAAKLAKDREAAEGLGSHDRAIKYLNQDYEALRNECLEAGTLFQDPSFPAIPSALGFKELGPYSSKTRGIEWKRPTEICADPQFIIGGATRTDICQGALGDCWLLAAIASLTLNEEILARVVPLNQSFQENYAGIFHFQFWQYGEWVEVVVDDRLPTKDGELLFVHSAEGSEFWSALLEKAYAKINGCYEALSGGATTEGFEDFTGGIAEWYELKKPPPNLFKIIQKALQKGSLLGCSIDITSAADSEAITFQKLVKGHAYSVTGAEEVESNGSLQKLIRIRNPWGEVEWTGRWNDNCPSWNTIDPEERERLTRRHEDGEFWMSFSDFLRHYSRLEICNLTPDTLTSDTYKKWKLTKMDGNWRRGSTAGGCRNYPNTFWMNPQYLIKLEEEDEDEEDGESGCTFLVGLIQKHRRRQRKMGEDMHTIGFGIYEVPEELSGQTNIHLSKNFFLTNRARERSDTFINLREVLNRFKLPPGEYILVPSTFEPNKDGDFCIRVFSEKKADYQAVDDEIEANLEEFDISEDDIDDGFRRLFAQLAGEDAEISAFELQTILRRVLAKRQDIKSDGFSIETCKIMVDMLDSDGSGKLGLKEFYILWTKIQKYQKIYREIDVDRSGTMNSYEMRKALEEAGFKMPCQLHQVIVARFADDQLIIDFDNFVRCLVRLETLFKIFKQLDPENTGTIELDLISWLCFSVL
T1 sequence (P04632 1-268 partner): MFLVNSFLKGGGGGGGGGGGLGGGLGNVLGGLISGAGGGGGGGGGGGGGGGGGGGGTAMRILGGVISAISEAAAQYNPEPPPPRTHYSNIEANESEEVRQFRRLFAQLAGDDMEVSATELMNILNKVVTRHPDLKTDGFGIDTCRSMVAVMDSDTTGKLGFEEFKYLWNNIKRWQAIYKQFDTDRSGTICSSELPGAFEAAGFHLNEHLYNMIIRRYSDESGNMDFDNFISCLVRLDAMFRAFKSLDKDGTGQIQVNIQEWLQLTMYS
Kind of assay: Calpain inhibition continuous fluorescence (FRET) assay, Human Calpain 2/NS1. The assay is classed as biochemical. The following applies: read-out: Human Calpain 2/NS1 IC50. In a few lines: (§1)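 Continuous FRET read (ex 490/em 520 nm, 10 min) of calpain 1, 2 or 9 cleaving an internally quenched 5-FAM peptide, triggered by substrate with CaCl2 after enzyme–inhibitor incubation at ambient 25 °C, pH 7.5 Tris/NaCl/DTT buffer. IC50 from initial rates (1-5 min) via 4-parameter fit.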

Assay [2] concerns the target T2, Human Calpain 9/NS1 (Homo sapiens, UniProt O14815).
T2 sequence (O14815 1-690): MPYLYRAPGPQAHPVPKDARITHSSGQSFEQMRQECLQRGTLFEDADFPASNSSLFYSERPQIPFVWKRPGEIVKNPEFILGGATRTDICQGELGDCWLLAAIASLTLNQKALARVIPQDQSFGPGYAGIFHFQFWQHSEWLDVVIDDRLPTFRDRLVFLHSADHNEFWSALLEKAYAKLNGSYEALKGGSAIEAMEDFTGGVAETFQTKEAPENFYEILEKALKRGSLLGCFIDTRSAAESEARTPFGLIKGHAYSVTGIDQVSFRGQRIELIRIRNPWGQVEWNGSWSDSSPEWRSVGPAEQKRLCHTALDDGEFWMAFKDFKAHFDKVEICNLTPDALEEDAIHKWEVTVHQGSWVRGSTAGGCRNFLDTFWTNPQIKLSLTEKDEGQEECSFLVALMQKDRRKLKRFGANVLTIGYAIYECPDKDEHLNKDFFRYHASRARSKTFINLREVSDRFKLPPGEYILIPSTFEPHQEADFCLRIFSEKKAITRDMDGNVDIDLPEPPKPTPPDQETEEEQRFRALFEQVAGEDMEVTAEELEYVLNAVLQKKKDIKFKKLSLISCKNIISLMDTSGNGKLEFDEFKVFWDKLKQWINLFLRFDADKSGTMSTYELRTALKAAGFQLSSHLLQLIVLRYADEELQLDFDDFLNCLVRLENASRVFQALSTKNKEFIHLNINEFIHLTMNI
T2 sequence (P04632 1-268 partner): T1 sequence (P04632 1-268 partner)
The experiment in a line: Calpain inhibition continuous fluorescence (FRET) assay, Human Calpain 9/NS1. The class given is biochemical. The conditions noted are these: read-out: Human Calpain 9/NS1 IC50. Summed up: as §1

The target of assay [3] is T3, Human Calpain 1/NS1 (Homo sapiens, UniProt P07384).
T3 sequence (P07384 1-714): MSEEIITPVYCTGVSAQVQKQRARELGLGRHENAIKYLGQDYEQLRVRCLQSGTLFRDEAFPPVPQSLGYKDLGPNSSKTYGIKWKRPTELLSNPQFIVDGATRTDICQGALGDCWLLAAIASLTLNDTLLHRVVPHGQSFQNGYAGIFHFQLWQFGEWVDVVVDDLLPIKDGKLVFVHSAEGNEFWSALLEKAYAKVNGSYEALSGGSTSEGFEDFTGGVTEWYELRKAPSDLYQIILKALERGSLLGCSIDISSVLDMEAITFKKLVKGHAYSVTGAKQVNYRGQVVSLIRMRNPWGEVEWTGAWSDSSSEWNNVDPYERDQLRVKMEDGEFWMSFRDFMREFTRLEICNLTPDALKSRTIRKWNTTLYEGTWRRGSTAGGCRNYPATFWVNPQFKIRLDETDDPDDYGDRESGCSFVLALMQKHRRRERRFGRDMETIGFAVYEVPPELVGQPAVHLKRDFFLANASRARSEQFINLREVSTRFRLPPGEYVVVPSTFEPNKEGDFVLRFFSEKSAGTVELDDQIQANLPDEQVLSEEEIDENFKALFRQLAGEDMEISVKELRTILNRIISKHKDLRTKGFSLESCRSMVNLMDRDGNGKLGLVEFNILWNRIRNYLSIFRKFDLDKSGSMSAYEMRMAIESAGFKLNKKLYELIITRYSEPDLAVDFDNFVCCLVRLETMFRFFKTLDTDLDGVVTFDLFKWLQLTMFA
T3 sequence (P04632 1-268 partner): T1 sequence (P04632 1-268 partner)
Kind of assay: Calpain inhibition continuous fluorescence (FRET) assay, Human Calpain 1/NS1. The class given is biochemical. The conditions noted are these: read-out: Human Calpain 1/NS1 IC50. Summed up: as §1

Assay [4] deals with Calpain activity in SH-SY5Y cells (SBDP-150). Kind of assay: SH-SY5Y Spectrin western blot assay (SBDP-150 breakdown product, A23187-induced). The following applies: Homo sapiens, SH-SY5Y cells, read-out: SH-SY5Y Spectrin IC50. The assay is classed as cell-based. (In general: In western blotting, separated proteins are transferred to a membrane and probed.)
Assay [5] concerns Calpain activity in SH-SY5Y cells. Kind of assay: SH-SY5Y + AMC fluorescence assay (Suc-LLVY-AMC substrate). The assay is classed as cell-based. The following applies: read-out: SH-SY5Y + AMC IC50.
Setting [6] is: A23187-induced SBDP-150, western blot.
The mark [7] stands for this setting: Column D, A23187-induced SBDP-150.

Read-outs that look alike come from different tables or passages of the source.

With `CC(NC(=O)c1nsnc1-c1ccccc1)C(=O)C(N)=O` (stereo not drawn) [Compound 468, N-(4-amino-3,4-dioxobutan-2-yl)-4-phenyl-1,2,5-thiadiazole-3-carboxamide], the IC50 in assay [1] is below 3 µM; in assay [2], below 3 µM; in assay [3] it was below 3 µM; in assay [4] (setting [6]) it was below 10 µM; in assay [5] it was above 25 µM.
On to `NC(=O)C(=O)[C@H](Cc1ccccc1)NC(=O)c1c(-c2ccccc2)noc1C(F)(F)F` [Compound 278, (S)—N-(4-amino-3,4-dioxo-1-phenylbutan-2-yl)-3-phenyl-5-(trifluoromethyl)isoxazole-4-carboxamide], for which the IC50 is below 3 µM in assay [1] (Column B); below 3 µM in assay [2] (Column C); below 3 µM in assay [3] (Column A); below 10 µM in assay [4] (setting [7]); above 25 µM in assay [5] (Column E).
Consider `Cc1cc(C(=O)N[C@@H](Cc2ccccc2)C(=O)C(N)=O)n(-c2ncc(-c3ccccc3)o2)n1` [Compound 212, (S)—N-(4-amino-3,4-dioxo-1-phenylbutan-2-yl)-3-methyl-1-(5-phenyloxazol-2-yl)-1H-pyrazole-5-carboxamide], for which the IC50 is below 3 µM in assay [1] (Column B); below 3 µM in assay [2] (Column C); below 3 µM in assay [3] (Column A); 10 to 25 µM in assay [4] (setting [7]); below 10 µM in assay [5] (Column E).
For `Cc1cc(C(=O)NC(Cc2ccccc2)C(=O)C(N)=O)n(-c2ccc(C(F)(F)F)cn2)n1` (stereo not drawn) [Compound 445, N-(4-amino-3,4-dioxo-1-phenylbutan-2-yl)-3-methyl-1-(5-(trifluoromethyl)pyridin-2-yl)-1H-pyrazole-5-carboxamide], the IC50 in assay [1] was below 3 µM; in assay [2] it was below 3 µM; in assay [3] it was below 3 µM; in assay [4] (setting [6]) it was below 10 µM; in assay [5], above 25 µM.
On to `Cc1ccc(C)c(-c2nn(C(F)F)cc2C(=O)NC(Cc2ccccc2)C(=O)C(N)=O)c1` (stereo not drawn) [Compound 524, N-(4-amino-3,4-dioxo-1-phenylbutan-2-yl)-1-(difluoromethyl)-3-(2,5-dimethylphenyl)-1H-pyrazole-4-carboxamide], for which the IC50 in assay [1] was below 3 µM; in assay [2], below 3 µM; in assay [3] it was below 3 µM; in assay [4] (setting [6]), 10 to 25 µM; in assay [5], below 10 µM.
With `Cn1nc(Cl)c(C(=O)NC(Cc2ccccc2)C(=O)C(N)=O)c1Cl` (stereo not drawn) [Compound 282, N-(4-amino-3,4-dioxo-1-phenylbutan-2-yl)-3,5-dichloro-1-methyl-1H-pyrazole-4-carboxamide], the IC50 in assay [1] (Column B) is below 3 µM; in assay [2] (Column C), below 3 µM; in assay [3] (Column A), below 3 µM; in assay [4] (setting [7]), 10 to 25 µM; in assay [5] (Column E), below 10 µM.
Turning to `Cc1cccc(-c2cccc(-n3nc(C)cc3C(=O)N[C@@H](Cc3ccccc3)C(=O)C(N)=O)c2)c1` [Compound 105, (S)—N-(4-amino-3,4-dioxo-1-phenylbutan-2-yl)-3-methyl-1-(3′-methyl-[1,1′-biphenyl]-3-yl)-1H-pyrazole-5-carboxamide], the IC50 in assay [1] (Column B) is below 3 µM; in assay [2] (Column C) it was below 3 µM; in assay [3] (Column A), below 3 µM; in assay [4] (setting [7]), above 25 µM; in assay [5] (Column E) it was above 25 µM.
As to `Cn1cc(C(=O)N[C@@H](Cc2ccc(O)cc2)C(=O)C(N)=O)c(-c2ccccc2)n1` [Compound 421, (S)—N-(4-amino-1-(4-hydroxyphenyl)-3,4-dioxobutan-2-yl)-1-methyl-3-phenyl-1H-pyrazole-4-carboxamide], the IC50 was below 3 µM in assay [1]; below 3 µM in assay [2]; below 3 µM in assay [3]; 10 to 25 µM in assay [4] (setting [6]); below 10 µM in assay [5].
On to `NC(=O)C(=O)[C@H](Cc1ccccc1)NC(=O)c1nonc1-c1ccccc1` [Compound 293, (S)—N-(4-amino-3,4-dioxo-1-phenylbutan-2-yl)-4-phenyl-1,2,5-oxadiazole-3-carboxamide], for which the IC50 is below 3 µM in assay [1] (Column B); below 3 µM in assay [2] (Column C); below 3 µM in assay [3] (Column A); 10 to 25 µM in assay [4] (setting [7]); below 10 µM in assay [5] (Column E).
For the compound `Cc1cc(C(=O)NC(Cc2ccccc2)C(=O)C(N)=O)n(-c2ccnc(C3CC3)n2)n1` (stereo not drawn) [Compound 352, N-(4-amino-3,4-dioxo-1-phenylbutan-2-yl)-1-(2-cyclopropylpyrimidin-4-yl)-3-methyl-1H-pyrazole-5-carboxamide], the IC50 in assay [1] was below 3 µM; in assay [2], below 3 µM; in assay [3] it was below 3 µM; in assay [4] (setting [6]) it was above 25 µM; in assay [5], 10 to 25 µM.
Consider `CCc1cccc(-c2nn(C)cc2C(=O)N[C@@H](Cc2ccccc2)C(=O)C(N)=O)c1` [Compound 182, (S)—N-(4-amino-3,4-dioxo-1-phenylbutan-2-yl)-3-(3-ethylphenyl)-1-methyl-1H-pyrazole-4-carboxamide], for which the IC50 in assay [1] (Column B) was below 3 µM; in assay [2] (Column C), below 3 µM; in assay [3] (Column A), below 3 µM; in assay [4] (setting [7]) it was 10 to 25 µM; in assay [5] (Column E), below 10 µM.
With `Cn1cc(C(=O)NC(C(=O)C(N)=O)c2ccc3ccccc3c2)c(-c2ccccc2F)n1` (stereo not drawn) [Compound 579, N-(3-amino-1-(naphthalen-2-yl)-2,3-dioxopropyl)-3-(2-fluorophenyl)-1-methyl-1H-pyrazole-4-carboxamide], the IC50 in assay [1] was below 3 µM; in assay [2], below 3 µM; in assay [3] it was below 3 µM; in assay [4] (setting [6]), above 25 µM; in assay [5] it was below 10 µM.
